For 27 compounds, IC50 results are on record in patent US9186360B2, “Treatment of respiratory disorders using TRPA1 antagonists” (GLENMARK PHARMACEUTICALS S.A., priority 2011, dated 2015).

A value given as a limit tells only on which side of the number the result lay.

What all share (type): cell-based
The target of experiment [1] is human TRPA1 (Homo sapiens (Human), UniProt O75762). As to the kind of experiment: 45Calcium uptake assay, AITC induced, human TRPA1 expressing CHO cells. The following applies: AITC 30 micromolar, read-out: IC50 values hTRPA1. The procedure: As contemplated herein, the IC50 value is measured by the following method. The inhibition of TRPA1 receptor activation is measured as inhibition of allylisothiocyanate (AITC) induced cellular uptake of radioactive calcium. Test solution of test compound is prepared in a suitable solvent using appropriate method. Human TRPA1 expressing CHO cells are grown in suitable medium. Cells are treated with test compounds followed by addition of AITC. Cells are washed and lysed. Radioactivity in the lysate is measured in Packard Top count after addition of liquid scintillant. The concentration response curves for compounds are plotted as a % of maximal response obtained in the absence of test antagonist, and the IC50 values are calculated from such concentration response curve by nonlinear regression analysis using GraphPad PRISM software.
The illustrative TRPA1 antagonists of the present invention were screened for TRPA1 activity according to a modified procedure described in Tóth, A. et al., Life Sciences 2003, 73, 487-498. The screening of the compounds can be carried out by other methods and procedures known to persons skilled in the art.
Screening for TRPA1 Antagonist Using the 45Calcium Uptake Assay:
The inhibition of TRPA1 receptor activation was measured as inhibition of allylisothiocyanate (AITC) induced cellular uptake of radioactive calcium. Test compounds were dissolved in DMSO to prepare 10 mM stock solution and then diluted using plain medium with 0.1% BSA and 1.8 mM CaCl2 to get desired concentration. Final concentration of DMSO in the reaction was 0.5% (v/v). Human TRPA1 expressing CHO cells were grown in F-12 DMEM medium with 10% FBS, 1% penicillin-streptomycin solution, and 400 μg/ml of G-418. Cells were seeded 24 h prior to the assay in 96 well plates so as to get ˜50,000 cells per well on the day of experiment. Cells were treated with test compounds for 10 min followed by addition of AITC at a final concentration of 30 micromolar and 5 μCi/ml 45Ca+2 for 3 min at 25° C. Cells were washed and lysed using buffer containing 1% Triton X-100, 0.1% deoxycholate and 0.1% SDS. Radioactivity in the lysate was measured in Packard Top count after addition of liquid scintillant.
Concentration response curves were plotted as a % of maximal response obtained in the absence of test antagonist. IC50 value was calculated from concentration response curve by nonlinear regression analysis using GraphPad PRISM software.

Experiment [2] has as its target human TRPV1 (Homo sapiens (Human), UniProt Q8NER1). Nature of the experiment: Radiometric calcium selectivity assay, CHO cells expressing human TRPV1 (capsaicin). The settings on record: read-out: IC50 values hTRPV1. The method, then:
(§1) For selectivity screening, CHO cells stably expressing human TRPV1, human TRPV3, human TRPV4, or human TRPM8 were generated in-house and maintained in DMEM F-12 supplemented with 10% FBS and G418. All the cell types were cultured at 37° C. in humidified air containing 5% CO2. Radiometric calcium assay was performed as described above with some minor modifications. Assay was carried out in total volume of 200 μl at 30° C. (for TRPV1), 32° C. (for TRPV3) and 25° C. (for TRPV4 and TRPM8). Agonists used for selectivity screening of the different TRPs are: Capsaicin for TRPV1,2-aminoethoxydiphenyl borate for TRPV3, 4α-phorbol 12,13-didecanoate for TRPV4 and Icilin for TRPM8. After 2-5 minutes of agonist treatment, drug was washed and lysed in lysis buffer as mentioned above. Radioactivity in the lysate was measured in Packard Top count after addition of liquid scintillant.

The target in experiment [3] is human TRPV3 (Homo sapiens (Human), UniProt Q8NET8). Nature of the experiment: Radiometric calcium selectivity assay, CHO cells expressing human TRPV3 (2-aminoethoxydiphenyl borate). The following applies: read-out: IC50 values hTRPV3. The procedure:
as §1

For experiment [4], the target named is human TRPV4 (Homo sapiens (Human), UniProt Q9HBA0). Nature of the experiment: Radiometric calcium selectivity assay, CHO cells expressing human TRPV4 (4α-phorbol 12,13-didecanoate). The following applies: read-out: IC50 values hTRPV4. The procedure:
as §1

For experiment [5], the target named is human TRPM8 (Homo sapiens (Human), UniProt Q7Z2W7). Nature of the experiment: Radiometric calcium selectivity assay, CHO cells expressing human TRPM8 (icilin). The following applies: read-out: IC50 values hTRPM8. The method, then:
as §1

Sequence of human TRPV1 (Q8NER1 whole entry): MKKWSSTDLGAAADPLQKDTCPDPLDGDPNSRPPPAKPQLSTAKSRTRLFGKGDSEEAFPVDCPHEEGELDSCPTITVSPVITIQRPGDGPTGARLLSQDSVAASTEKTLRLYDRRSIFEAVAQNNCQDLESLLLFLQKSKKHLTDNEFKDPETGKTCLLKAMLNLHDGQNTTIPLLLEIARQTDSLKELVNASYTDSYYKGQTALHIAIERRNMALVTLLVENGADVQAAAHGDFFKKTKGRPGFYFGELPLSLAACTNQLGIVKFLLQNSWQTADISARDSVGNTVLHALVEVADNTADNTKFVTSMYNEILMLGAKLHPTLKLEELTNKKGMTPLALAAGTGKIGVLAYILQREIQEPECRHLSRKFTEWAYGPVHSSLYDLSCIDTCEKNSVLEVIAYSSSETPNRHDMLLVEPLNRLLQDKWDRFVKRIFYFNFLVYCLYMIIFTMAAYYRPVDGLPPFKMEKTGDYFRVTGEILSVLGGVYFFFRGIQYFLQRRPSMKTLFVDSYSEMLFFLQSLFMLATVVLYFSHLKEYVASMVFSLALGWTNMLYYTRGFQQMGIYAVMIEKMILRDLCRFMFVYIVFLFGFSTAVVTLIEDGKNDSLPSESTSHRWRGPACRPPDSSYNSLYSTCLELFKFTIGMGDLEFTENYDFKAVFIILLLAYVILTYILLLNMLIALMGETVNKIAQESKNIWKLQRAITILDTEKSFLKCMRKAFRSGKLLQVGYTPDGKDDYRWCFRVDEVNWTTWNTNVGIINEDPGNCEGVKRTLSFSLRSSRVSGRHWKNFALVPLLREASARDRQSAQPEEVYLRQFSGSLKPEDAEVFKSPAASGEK
Sequence of human TRPM8 (Q7Z2W7 whole entry): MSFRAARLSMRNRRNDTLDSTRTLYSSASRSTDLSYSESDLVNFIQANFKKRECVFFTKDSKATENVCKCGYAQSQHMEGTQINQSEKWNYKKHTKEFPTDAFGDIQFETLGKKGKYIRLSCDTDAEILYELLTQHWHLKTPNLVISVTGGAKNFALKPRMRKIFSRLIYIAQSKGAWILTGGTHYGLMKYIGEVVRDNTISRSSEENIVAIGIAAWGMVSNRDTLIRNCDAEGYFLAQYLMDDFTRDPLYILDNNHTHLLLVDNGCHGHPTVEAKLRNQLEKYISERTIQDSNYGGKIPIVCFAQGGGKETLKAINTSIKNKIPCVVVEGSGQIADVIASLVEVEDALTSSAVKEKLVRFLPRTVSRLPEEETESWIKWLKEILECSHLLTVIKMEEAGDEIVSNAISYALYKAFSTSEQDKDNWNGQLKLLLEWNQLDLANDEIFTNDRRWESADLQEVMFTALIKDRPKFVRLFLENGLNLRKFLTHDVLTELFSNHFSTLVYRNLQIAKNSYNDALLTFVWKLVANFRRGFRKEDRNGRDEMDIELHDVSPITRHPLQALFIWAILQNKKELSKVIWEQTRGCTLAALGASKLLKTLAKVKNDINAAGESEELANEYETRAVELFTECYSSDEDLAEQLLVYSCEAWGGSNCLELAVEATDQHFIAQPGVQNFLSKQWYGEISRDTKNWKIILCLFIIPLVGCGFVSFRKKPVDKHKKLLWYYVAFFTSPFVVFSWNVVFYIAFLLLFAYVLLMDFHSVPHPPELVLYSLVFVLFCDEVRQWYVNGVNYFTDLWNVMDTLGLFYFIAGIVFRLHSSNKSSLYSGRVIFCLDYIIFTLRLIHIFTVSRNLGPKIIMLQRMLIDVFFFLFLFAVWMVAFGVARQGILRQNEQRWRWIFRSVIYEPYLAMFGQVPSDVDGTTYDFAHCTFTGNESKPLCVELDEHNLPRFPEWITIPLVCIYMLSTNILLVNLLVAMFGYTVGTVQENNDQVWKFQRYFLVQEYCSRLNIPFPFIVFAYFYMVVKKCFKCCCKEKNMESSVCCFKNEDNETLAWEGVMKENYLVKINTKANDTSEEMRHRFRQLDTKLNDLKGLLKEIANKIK
Sequence of human TRPA1 (O75762 whole entry): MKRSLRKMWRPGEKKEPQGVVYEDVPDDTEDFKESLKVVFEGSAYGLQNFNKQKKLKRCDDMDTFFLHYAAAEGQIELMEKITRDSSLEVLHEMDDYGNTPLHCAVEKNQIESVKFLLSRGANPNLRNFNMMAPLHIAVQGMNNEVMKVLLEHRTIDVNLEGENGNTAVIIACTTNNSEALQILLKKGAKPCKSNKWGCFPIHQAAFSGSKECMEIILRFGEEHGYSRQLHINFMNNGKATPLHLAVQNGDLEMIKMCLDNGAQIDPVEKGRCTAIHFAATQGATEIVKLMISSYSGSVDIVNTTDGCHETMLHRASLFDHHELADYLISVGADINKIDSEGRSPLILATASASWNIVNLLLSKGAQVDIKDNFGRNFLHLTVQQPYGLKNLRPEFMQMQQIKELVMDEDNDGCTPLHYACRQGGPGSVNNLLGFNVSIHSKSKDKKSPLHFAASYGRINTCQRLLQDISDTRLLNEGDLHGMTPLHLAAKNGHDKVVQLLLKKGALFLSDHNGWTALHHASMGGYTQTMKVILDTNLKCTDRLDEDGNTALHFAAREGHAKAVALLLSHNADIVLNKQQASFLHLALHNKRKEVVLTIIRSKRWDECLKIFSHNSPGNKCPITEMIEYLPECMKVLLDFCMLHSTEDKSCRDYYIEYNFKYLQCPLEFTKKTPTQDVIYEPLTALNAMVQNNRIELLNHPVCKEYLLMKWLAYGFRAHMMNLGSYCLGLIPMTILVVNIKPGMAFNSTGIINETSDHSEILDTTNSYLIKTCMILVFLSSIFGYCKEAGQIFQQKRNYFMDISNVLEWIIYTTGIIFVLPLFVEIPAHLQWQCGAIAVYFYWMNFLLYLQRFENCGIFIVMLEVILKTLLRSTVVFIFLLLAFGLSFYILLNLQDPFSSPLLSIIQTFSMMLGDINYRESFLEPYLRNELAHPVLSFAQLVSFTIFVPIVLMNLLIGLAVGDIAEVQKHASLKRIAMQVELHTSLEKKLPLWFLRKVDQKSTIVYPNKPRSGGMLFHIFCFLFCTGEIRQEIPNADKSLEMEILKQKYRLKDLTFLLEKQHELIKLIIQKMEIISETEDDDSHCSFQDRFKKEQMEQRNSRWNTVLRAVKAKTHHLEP
Sequence of human TRPV4 (Q9HBA0 whole entry): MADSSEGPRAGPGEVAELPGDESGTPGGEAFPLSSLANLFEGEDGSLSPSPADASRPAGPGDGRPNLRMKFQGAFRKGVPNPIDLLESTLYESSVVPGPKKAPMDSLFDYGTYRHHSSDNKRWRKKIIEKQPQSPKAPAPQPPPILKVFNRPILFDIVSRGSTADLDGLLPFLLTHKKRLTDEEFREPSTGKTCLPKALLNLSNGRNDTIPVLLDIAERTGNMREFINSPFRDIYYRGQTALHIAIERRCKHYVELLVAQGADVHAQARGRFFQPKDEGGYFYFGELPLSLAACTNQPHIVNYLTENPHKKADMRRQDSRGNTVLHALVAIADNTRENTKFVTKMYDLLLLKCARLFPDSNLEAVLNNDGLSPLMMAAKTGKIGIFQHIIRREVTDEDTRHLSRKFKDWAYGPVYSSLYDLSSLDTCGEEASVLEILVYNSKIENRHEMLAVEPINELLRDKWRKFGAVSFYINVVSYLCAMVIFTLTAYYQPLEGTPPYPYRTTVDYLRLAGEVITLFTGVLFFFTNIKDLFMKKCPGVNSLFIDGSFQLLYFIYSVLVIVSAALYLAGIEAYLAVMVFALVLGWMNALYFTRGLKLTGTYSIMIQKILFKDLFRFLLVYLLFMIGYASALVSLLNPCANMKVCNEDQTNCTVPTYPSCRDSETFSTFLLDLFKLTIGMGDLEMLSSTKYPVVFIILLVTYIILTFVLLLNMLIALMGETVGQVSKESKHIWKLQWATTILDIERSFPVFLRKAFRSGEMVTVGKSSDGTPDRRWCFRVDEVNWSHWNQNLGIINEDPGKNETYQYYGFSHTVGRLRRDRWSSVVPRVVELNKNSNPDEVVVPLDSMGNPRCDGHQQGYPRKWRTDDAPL
Sequence of human TRPV3 (Q8NET8 whole entry): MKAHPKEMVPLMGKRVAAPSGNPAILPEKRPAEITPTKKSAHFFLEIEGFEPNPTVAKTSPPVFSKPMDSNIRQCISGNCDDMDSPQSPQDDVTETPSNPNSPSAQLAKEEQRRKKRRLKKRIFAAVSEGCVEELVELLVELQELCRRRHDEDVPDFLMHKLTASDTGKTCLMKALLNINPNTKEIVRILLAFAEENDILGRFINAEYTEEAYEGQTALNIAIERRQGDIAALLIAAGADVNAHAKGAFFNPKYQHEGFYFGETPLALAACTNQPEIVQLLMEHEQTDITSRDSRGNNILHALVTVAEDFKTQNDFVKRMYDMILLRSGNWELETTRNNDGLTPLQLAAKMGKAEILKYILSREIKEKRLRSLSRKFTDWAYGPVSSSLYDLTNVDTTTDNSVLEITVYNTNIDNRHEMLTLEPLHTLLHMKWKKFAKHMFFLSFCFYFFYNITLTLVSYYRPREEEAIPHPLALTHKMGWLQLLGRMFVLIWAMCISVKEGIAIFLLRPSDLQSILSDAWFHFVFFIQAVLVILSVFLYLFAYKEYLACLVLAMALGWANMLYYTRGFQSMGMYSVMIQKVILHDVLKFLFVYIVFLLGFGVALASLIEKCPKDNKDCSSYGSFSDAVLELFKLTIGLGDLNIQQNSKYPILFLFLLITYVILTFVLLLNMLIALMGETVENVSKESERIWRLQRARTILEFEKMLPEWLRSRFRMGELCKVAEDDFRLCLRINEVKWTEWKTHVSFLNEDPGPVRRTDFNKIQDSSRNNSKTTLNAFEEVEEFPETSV

As for `CN1C(=O)c2c(ncn2CC(=O)Nc2nc(-c3ccc(Br)cc3)cs2)N2CCN=C12` [Compound 1], the IC50 in experiment [1] was 921 nM; in experiment [2], over 10000 nM; in experiment [3], over 10000 nM; in experiment [4] it was over 10000 nM; in experiment [5] it was over 10000 nM.
For the compound `CN1C(=O)c2c(ncn2CC(=O)Nc2nc(-c3ccc(C(C)(C)C)cc3)cs2)N2CCN=C12` [Compound 2], the IC50 in experiment [1] is 382 nM; in experiment [2] it was over 10000 nM; in experiment [3], over 10000 nM; in experiment [4] it was 3840 nM; in experiment [5], over 10000 nM.
In the case of `Cn1c(=O)c2c(CC(=O)Nc3nc(-c4ccc(Br)cc4)cs3)cccc2n(C)c1=O` [Compound 3], the IC50 in experiment [1] was 73.3 nM; in experiment [2] it was over 10000 nM; in experiment [3], over 10000 nM; in experiment [4], 969 nM; in experiment [5], over 10000 nM.
As for `Cn1c(=O)c2c(CC(=O)Nc3nc(-c4ccc(Cl)c(Cl)c4)cs3)cccc2n(C)c1=O` [Compound 4], the IC50 in experiment [1] was 98.3 nM; in experiment [2], over 10000 nM; in experiment [3], over 10000 nM; in experiment [4], over 1000 nM; in experiment [5], over 10000 nM.
For `Cn1c(=O)c2c(CC(=O)Nc3nc(-c4ccc(I)cc4)cs3)cccc2n(C)c1=O` [Compound 5], the IC50 in experiment [1] was 66.3 nM; in experiment [2], over 10000 nM; in experiment [3], over 10000 nM; in experiment [4], over 1000 nM; in experiment [5], over 10000 nM.
Consider `Cc1ccc(-c2csc(NC(=O)Cc3cccc4c3c(=O)n(C)c(=O)n4C)n2)cc1` [Compound 6], for which the IC50 was 97.4 nM in experiment [1]; over 10000 nM in experiment [2]; over 10000 nM in experiment [3]; over 1000 nM in experiment [4]; over 10000 nM in experiment [5].
Turning to `Cn1c(=O)c2c(CC(=O)Nc3nc(-c4cccc(C(F)(F)F)c4)cs3)cccc2n(C)c1=O` [Compound 7], the IC50 was 47.4 nM in experiment [1]; over 10000 nM in experiment [2]; 2100 nM in experiment [3]; 1870 nM in experiment [4]; over 10000 nM in experiment [5].
For the compound `Cn1c(=O)c2c(CC(=O)Nc3ccn(-c4ccc(Cl)cc4)n3)cccc2n(C)c1=O` [Compound 8], the IC50 is 55 nM in experiment [1]; over 10000 nM in experiment [2]; over 10000 nM in experiment [3]; over 1000 nM in experiment [4]; over 10000 nM in experiment [5].
In the case of `Cn1c(=O)c2c(CC(=O)Nc3nc(-c4cccc(Cl)c4)cs3)cccc2n(C)c1=O` [Compound 9], the IC50 in experiment [1] is 102 nM; in experiment [2] it was over 10000 nM; in experiment [3] it was over 1000 nM; in experiment [4], over 1000 nM; in experiment [5], over 10000 nM.
In the case of `Cn1c(=O)c2c(CC(=O)Nc3nc(-c4ccc(C5CCCCC5)cc4)cs3)cccc2n(C)c1=O` [Compound 10], the IC50 was 46.7 nM in experiment [1]; over 10000 nM in experiment [2]; over 10000 nM in experiment [3]; over 10000 nM in experiment [4]; over 10000 nM in experiment [5].
Take `Cn1c(=O)c2c(CC(=O)Nc3nc(-c4ccc(C(F)(F)F)cc4)cs3)cccc2n(C)c1=O` [Compound 11]: the IC50 in experiment [1] was 46.3 nM; in experiment [2] it was over 10000 nM; in experiment [3], over 10000 nM; in experiment [4] it was 1500 nM; in experiment [5], over 10000 nM.
For the compound `Cn1c(=O)c2c(CC(=O)Nc3nc(-c4ccc(C(C)(C)C)cc4)cs3)cccc2n(C)c1=O` [Compound 12], the IC50 was 51.7 nM in experiment [1]; over 10000 nM in experiment [2]; over 10000 nM in experiment [3]; over 1000 nM in experiment [4]; over 10000 nM in experiment [5].
On to `Cn1c(=O)c2c(CC(=O)Nc3nc(-c4ccc(F)cc4F)cs3)cccc2n(C)c1=O` [Compound 13], for which the concentration for half-maximal inhibition (IC50) is 48.2 nM in experiment [1]; over 10000 nM in experiment [2]; over 1000 nM in experiment [3]; 2800 nM in experiment [4]; over 10000 nM in experiment [5].
Take `CC(C)c1ccc(-c2csc(NC(=O)Cc3cccc4c3c(=O)n(C)c(=O)n4C)n2)cc1` [Compound 14]: the IC50 was 60.4 nM in experiment [1]; over 10000 nM in experiment [2]; over 1000 nM in experiment [3]; over 1000 nM in experiment [4]; over 10000 nM in experiment [5].
`Cn1c(=O)c2c(CC(=O)Nc3nc(-c4ccc(F)c(Cl)c4)cs3)cccc2n(C)c1=O` [Compound 15]: the IC50 in experiment [1] is 53.6 nM; in experiment [2], over 10000 nM; in experiment [3], over 1000 nM; in experiment [4] it was over 1000 nM; in experiment [5], over 10000 nM.
Turning to `CCc1ccc(-c2csc(NC(=O)Cc3cccc4c3c(=O)n(C)c(=O)n4C)n2)cc1` [Compound 17], the IC50 is 56 nM in experiment [1]; over 10000 nM in experiment [2]; over 10000 nM in experiment [3]; over 1000 nM in experiment [4]; over 10000 nM in experiment [5].
Consider `Cn1c(=O)c2c(CC(=O)Nc3nc(-c4ccc(C(F)(F)F)c(F)c4)cs3)cccc2n(C)c1=O` [Compound 18], for which the IC50 in experiment [1] is 13.4 nM; in experiment [2] it was over 10000 nM; in experiment [3], over 10000 nM; in experiment [4], 1320 nM; in experiment [5] it was over 10000 nM.
Turning to `Cn1c(=O)c2c(CC(=O)Nc3nc(-c4ccc(C(F)(F)F)cc4F)cs3)cccc2n(C)c1=O` [Compound 19], the IC50 is 26.1 nM in experiment [1]; over 10000 nM in experiment [2]; over 1000 nM in experiment [3]; 1630 nM in experiment [4]; over 10000 nM in experiment [5].
Turning to `Cn1c(=O)c2c(CC(=O)Nc3nc(-c4ccc(F)c(C(F)(F)F)c4)cs3)cccc2n(C)c1=O` [Compound 20], the IC50 in experiment [1] was 20.1 nM; in experiment [2], over 10000 nM; in experiment [3] it was over 1000 nM; in experiment [4], 1670 nM; in experiment [5] it was over 10000 nM.
As for `Cn1c(=O)c2c(CC(=O)Nc3nc(-c4ccc(Cl)c(C(F)(F)F)c4)cs3)cccc2n(C)c1=O` [Compound 21], the IC50 in experiment [1] is 48.2 nM; in experiment [2], over 1000 nM; in experiment [3] it was over 10000 nM; in experiment [4], 520 nM; in experiment [5] it was over 10000 nM.
In the case of `CCC(=N\O)/C(C)=C/c1ccc(F)cc1` [Compound 89], the IC50 in experiment [2], in experiment [3], in experiment [4] and in experiment [5] was over 10000 nM each time.
In the case of `Cn1c(=O)c2c(CC(=O)Nc3nc(-c4ccc(C(F)(F)F)c(F)c4)cs3)c(Cl)oc2n(C)c1=O` [Compound 99], the IC50 in experiment [1] came out at 5.06 nM; in experiment [4], 1470 nM.
For `Cn1c(=O)c2c(CC(=O)Nc3nc(-c4cc(F)cc(C(F)(F)F)c4)cs3)c(Cl)oc2n(C)c1=O` [Compound 100], the IC50 was 5.15 nM in experiment [1] and over 10000 nM in experiment [4].
As to `Cn1c(=O)c2c(CC(=O)Nc3nc(-c4ccc(F)c(C(F)(F)F)c4F)cs3)c(Cl)oc2n(C)c1=O` [Compound 101], the IC50 in experiment [1] was 10.1 nM; in experiment [4] it was over 1000 nM.
Turning to `Cn1c(=O)c2c(CC(=O)Nc3nc(-c4ccc(OC(F)(F)F)c(F)c4)cs3)c(Cl)oc2n(C)c1=O` [Compound 102], the results for the concentration for half-maximal inhibition (IC50) in experiment [1] and in experiment [4] were 7.67 nM and 1350 nM, respectively.
Take `Cn1c(=O)c2c(CC(=O)Nc3nc(-c4ccc(F)c(OC(F)(F)F)c4)cs3)c(Cl)oc2n(C)c1=O` [Compound 103]: the IC50 was 27.4 nM in experiment [1] and 4020 nM in experiment [4].
For `Cn1c(=O)c2c(CC(=O)Nc3nc(-c4ccc(C(F)(F)F)c(F)c4F)cs3)c(Cl)oc2n(C)c1=O` [Compound 104] the same measures were 7.58 nM and 1810 nM.

Broadly, the IC50 is the point on the concentration scale where inhibition reaches its midpoint.
